Reference: patent US12023319B2, “Carboxylic acid aromatic amides” (priority 2016, dated 2024)

Target: T1, human Bradykinin B1 receptor (Homo sapiens, UniProt P46663)
T1 construct: host or cells: CHO-K1
T1 sequence (P46663 1-353): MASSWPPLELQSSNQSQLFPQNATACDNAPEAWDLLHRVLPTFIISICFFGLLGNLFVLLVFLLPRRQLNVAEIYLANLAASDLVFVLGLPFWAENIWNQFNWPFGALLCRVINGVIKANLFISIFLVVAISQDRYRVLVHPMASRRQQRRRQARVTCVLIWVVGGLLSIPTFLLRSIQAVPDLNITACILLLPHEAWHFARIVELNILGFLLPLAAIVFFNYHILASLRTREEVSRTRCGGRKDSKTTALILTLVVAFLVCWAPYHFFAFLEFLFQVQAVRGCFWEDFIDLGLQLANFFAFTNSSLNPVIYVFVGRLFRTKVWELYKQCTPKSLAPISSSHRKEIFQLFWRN
Assay: Calcium flux assay (FLIPR), CHO-K1 cells expressing human Bradykinin B1 receptor, absence of 0.1% BSA (hB1 free IC50)
Format: cell-based
Conditions: absence of 0.1% BSA in assay buffer
Protocol: The potency to inhibit the Bradykinin B1 receptor was determined for the Compound Examples of this invention in a cell-based fluorescent calcium-mobilisation assay. The assay measures the ability of Compound Examples to inhibit Bradykinin B1 receptor agonist-induced increase of intracellular free Ca^2+ in the cell line expressing Bradykinin B1 receptor. Specifically, calcium indicator-loaded cells are pre-incubated in the absence or presence of different concentrations of Compound Examples followed by the stimulation with a selective Bradykinin B1 receptor agonist peptide. The change of the intracellular Ca^2+ concentration is monitored with a fluorescent plate reader FLIPR^TETRA® (Molecular Devices).
Calcium Flux Assays (FLIPR) with Cells Expressing Human Bradykinin B1 Receptor (hB1)
CHO-K1 cell line expressing human Bradykinin B1 receptor is purchased from Euroscreen (Gosselies, Belgium, with reference name hB1-D1). The cells are grown in Nutrient Mixture Ham's F12 (Sigma) containing 10% Foetal bovine serum (Sigma) and 400 μg/mL G418 (Sigma), 5 μg/mL puromycin (Sigma).
The effect of BSA on the potency of endothelin receptor antagonists have been described in the prior art (Wu-Wong, J. R. et al. (1997), JPET 281: 791-798). The teaching can be applied in analogy to testing the potency of Bradykinin B1 receptor antagonist in the FLIPR assays.
For the calcium flux assay, 80% confluent cells are detached from the culture vessels with Versene (Gibco), and seeded into 384-well plates (Cell binding Surface; Corning, NY; #3683) at a density of 15,000 cells per well. Cells are seeded in a volume of 50 μL in medium without antibiotics and incubated overnight in a humidified atmosphere with 5% CO2 at 37° C. […] The calcium indicator loaded cells are incubated at 37° C. for 2 hrs. Extracellular dye is then removed and each well is filled with 45 μL of assay buffer. Cell plates are kept in dark until used. Compound examples are assayed at 8 concentrations in triplicate. Serial 10-fold dilutions in 100% DMSO are made at a 100-times higher concentration than the final concentration, and then diluted 1:10 in assay buffer. 5 μL of each diluted compound is added to the well of cell plates (yielding final concentration with 1% DMSO), and incubated for 30 min at 28° C. before the addition of Bradykinin B1 receptor agonist on the FLIPR instrument.
The addition of agonist 20 μl per well to the assay plate is carried out on the FLIPR instrument while continuously monitoring Ca2+-dependent fluorescence at 538 nm. A peptide antagonist Lys-(Des-Arg-Leu)-Bradykinin (Bachem, Brackley) at 20 µM is used to determine the full inhibition as control.
Peak fluorescence is used to determine the response to agonist obtained at each concentration of Compound Examples by the following equation: % Response=100*(RFU(compound)−RFU(control))/(RFU(DMSO)−RFU(control))
RFU means relative fluorescence units.
Control means full inhibition by the peptide antagonist Lys-(Des-Arg-Leu)-Bradykinin at 20 µM.
The response values are plotted against the logarithm of the compound concentrations. The Compound Examples are tested in triplicates per plate and mean values are plotted in Excel XLfit to determine IC50 values, percentage of maximal inhibition and the Hill slopes.

| Compound | IC50 [nM] |
| --- | --- |
| O=C(O)c1cc(NC(=O)C2(c3cc(F)cc(Cl)c3)CC2)ccc1-c1cnn(C2CCC2)c1 [Example 57, 5-({[1-(3-Chloro-5-fluorophenyl)cyclopropyl]carbonyl}amino)-2-(1-cyclobutyl-1H-pyrazol-4-yl)benzoic acid] | 840 |
| O=C(O)c1cc(NC(=O)C2(c3ccc(Cl)cn3)CC2)ccc1-c1cnn(C2CCC2)c1 [Example 58, 5-({[1-(5-Chloropyridin-2-yl)cyclopropyl]carbonyl}amino)-2-(1-cyclobutyl-1H-pyrazol-4-yl)benzoic acid] | 360 |
| O=C(O)c1cc(NC(=O)C2(c3c(F)cccc3F)CC2)ccc1-c1cnn(C2CCC2)c1 [Example 59, 2-(1-Cyclobutyl-1H-pyrazol-4-yl)-5-({[1-(2,6-difluorophenyl)cyclopropyl]carbonyl}amino)benzoic acid] | 1100 |
| O=C(O)c1cc(NC(=O)C2(c3cc(C(F)(F)F)ccc3F)CC2)ccc1-c1cnn(C2CCC2)c1 [Example 60, 2-(1-Cyclobutyl-1H-pyrazol-4-yl)-5-[({1-[2-fluoro-5-(trifluoromethyl)phenyl]cyclopropyl}carbonyl)amino]benzoic acid] | 62 |
| CC1(C)CC1(C(=O)Nc1ccc(-c2cnn(C3CCC3)c2)c(C(=O)O)c1)c1ccccc1F (stereo not shown) [Example 64, 2-(1-Cyclobutyl-1H-pyrazol-4-yl)-5-({[1-(2-fluorophenyl)-2,2-dimethylcyclopropyl]carbonyl}amino)benzoic acid] | 1300 |
| O=C(O)c1cc(NC(=O)C2(c3ccc(OC(F)(F)F)cc3F)CC2)ccc1-n1cc(C(F)(F)F)cn1 [Example 65, 5-[({1-[2-Fluoro-4-(trifluoromethoxy)phenyl]cyclopropyl}carbonyl)amino]-2-[4-(trifluoromethyl)-1H-pyrazol-1-yl]benzoic acid] | 2600 |
| CC(C)(C)c1ccn(-c2ccc(NC(=O)C3(c4ccc(OC(F)(F)F)cc4F)CC3)cc2C(=O)O)n1 [Example 66, 2-(3-tert-Butyl-1H-pyrazol-1-yl)-5-[({1-[2-fluoro-4-(trifluoromethoxy)phenyl]cyclopropyl}carbonyl)amino]benzoic acid] | 2100 |
| CCn1cc(-c2ccc(NC(=O)C3(c4ccc(OC(F)(F)F)cc4F)CC3)cc2C(=O)O)cn1 [Example 69, 2-(1-Ethyl-1H-pyrazol-4-yl)-5-[({1-[2-fluoro-4-(trifluoromethoxy)phenyl]cyclopropyl}carbonyl)amino]benzoic acid] | 28 |

Further compounds by falling IC50, results first:

| IC50 [nM] | Compound |
| --- | --- |
| 3000 | COc1ccc(F)c(C2(C(=O)Nc3ccc(-c4cnn(C5CCC5)c4)c(C(=O)O)c3)CC2)c1 [Example 63, 2-(1-Cyclobutyl-1H-pyrazol-4-yl)-5-({[1-(2-fluoro-5-methoxyphenyl)cyclopropyl]carbonyl}amino)benzoic acid] |
| 200 | O=C(O)c1cc(NC(=O)C2(c3ccc(F)cc3Cl)CC2)ccc1-c1cnn(C2CCC2)c1 [Example 61, 5-({[1-(2-Chloro-4-fluorophenyl)cyclopropyl]carbonyl}amino)-2-(1-cyclobutyl-1H-pyrazol-4-yl)benzoic acid] |
| 89 | O=C(O)c1cc(NC(=O)C2(c3c(F)cccc3Cl)CC2)ccc1-c1cnn(C2CCC2)c1 [Example 62, 5-({[1-(2-Chloro-6-fluorophenyl)cyclopropyl]carbonyl}amino)-2-(1-cyclobutyl-1H-pyrazol-4-yl)benzoic acid] |
| 85 | O=C(O)c1cc(NC(=O)C2(c3ccc(F)c(Cl)c3)CC2)ccc1-c1cnn(C2CCC2)c1 [Example 56, 5-({[1-(3-Chloro-4-fluorophenyl)cyclopropyl]carbonyl}amino)-2-(1-cyclobutyl-1H-pyrazol-4-yl)benzoic acid] |
| 36 | CCn1cc(-c2ccc(NC(=O)C3(c4ccc(C(F)(F)F)cc4F)CC3)cc2C(=O)O)cn1 [Example 68, 2-(1-Ethyl-1H-pyrazol-4-yl)-5-[({1-[2-fluoro-4-(trifluoromethyl)phenyl]cyclopropyl}carbonyl)amino]benzoic acid] |
